The nature of data set [1]: Hepatic persistence of Homo-SI/Hetero-SI mixtures in the female rat. The class given is in vivo, female rats. The procedure:
Hepatic Persistence of the Homo-SI and Hetero-SI Configurational Stereoisomers of Bromadiolone in the Female Rat
The following compositions concentrated in the Homo-SI or Hetero-SI configurational stereoisomers are prepared by one of the chromatography methods described above, in which the molar ratios are as follows: • Homo-SI/Hetero-SI: 80/20; • Homo-SI/Hetero-SI: 20/80.
The procedure with the female rats is the same as that with the male rats as described above. The mean hepatic contents of the Homo-SI and Hetero-SI isomers of the female rats are analysed by HPLC and are given in Table 4 below.

Another data set concerns Sprague Dawley rats. Nature of the data set: Multi-feeding administration of composition concentrated in Homo-SI, coagulation time (Quick time). Type of data set: in vivo. The conditions noted are these: daily dose of 0.25 mg during 3 consecutive days, male or female rat. As to the method:
Administration of a Composition Concentrated in Homo-SI by Multiple Ingestions (“Multi-Feeding”)
A composition of bromadiolone comprising 96% Homo-SI and 4% Hetero-SI is administered daily by tube-feeding during three days (D0, D+1 and D+2) to groups of 3 male or female laboratory rats (Sprague Dawley rats of 200 g) in an amount of: • 0.05 mg of bromadiolone per kilogram of rat, or • 0.1 mg of bromadiolone per kilogram of rat, or • 0.25 mg of bromadiolone per kilogram of rat, or • 0.5 mg of bromadiolone per kilogram of rat, or • 0.75 mg of bromadiolone per kilogram of rat.
On these rats blood samples are taken and on D+3 the coagulation time (Quick time, expressed in seconds) of the plasma is measured by means of the “Neoplastine CI Determination of Prothrombin Time” kit (Diagnostica Stago, Asnière, France) by measurement on a Thrombotimer option 2 plus apparatus (Behnk Electronik, Norderstedt, Germany).
The results obtained are given in FIG. 5, on which the hatched histograms represent the coagulation time of the female rats and the solid histograms represent the coagulation times of the male rats. By way of indication, the normal value for the coagulation time of untreated rats is of the order of 10 to 20 seconds.

Data set [2] in a line: Hepatic persistence of Homo-SI/Hetero-SI mixtures in the male rat. Type of data set: in vivo, male Sprague Dawley rats. The procedure: Hepatic Persistence of the Homo-SI and Hetero-SI Configurational Stereoisomers of Bromadiolone in the Male Rat
The following compositions concentrated in the Homo-SI or Hetero-SI configurational stereoisomers are prepared by one of the chromatography methods described above, in which the molar ratios are as follows: • Homo-SI/Hetero-SI: 80/20; • Homo-SI/Hetero-SI: 4/96.
On D0 16 male laboratory rats (Sprague Dawley rats, Charles River, Saint germain sur l'Arbresle, France) having a body weight of the order of 200 g are tube-fed with a dose of the 80/20 mixture or the 4/96 mixture above in an amount of 3.8 mg of bromadiolone per kilogram of rat. The rats are kept alive by daily subcutaneous injection of a solution of vitamin K. On D+1, D+3, D+5 and D+10, 4 rats are anaesthetised with isoflurane and then sacrificed, and the livers are removed and frozen until analysed.

The target in data set [3] is T1, Vitamin K Epoxide Reductase Complex 1 (VKORC1) (Rattus norvegicus, UniProt Q6TEK4).
T1 construct: catalysed by microsomes of the livers of rats sensitive to anti-vitamin K (AVK) compounds; from tissue; host or cells: rat liver microsomes
T1 sequence (Q6TEK4 1-161): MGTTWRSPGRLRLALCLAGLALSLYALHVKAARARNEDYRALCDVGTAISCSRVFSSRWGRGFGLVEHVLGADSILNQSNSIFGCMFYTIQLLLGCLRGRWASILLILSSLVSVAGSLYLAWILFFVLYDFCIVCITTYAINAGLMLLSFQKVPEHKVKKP
The data set can be described thus: Inhibition of vitamin K epoxide reductase (VKOR) activity in vitro, rat liver microsomes. Type of data set: biochemical. The conditions noted are these: microsomes of livers of rats sensitive to AVK; preparations 96% pure; read-out: inhibition constants (Ki) of VKOR activity. The procedure:
Inhibition of Vitamin K Epoxide Reductase Complex 1 (VKORC1) In Vitro by the Homostereoisomer and by the Heterostereoisomer of Bromadiolone
The inhibitory power of two preparations concentrated respectively in the homostereoisomer (Homo-SI) and heterostereoisomer (Hetero-SI) of bromadiolone was evaluated utilising measurement of the activity of vitamin K epoxide reductase (VKOR) catalysed by microsomes of the livers of rats sensitive to anti-vitamin K (AVK) compounds. The configurational stereoisomers of bromadiolone are partially purified by HPLC chromatography over a gradient of composition (A/B) as described in Table 1 above. The preparation concentrated in Homo-SI is made up of 96% Homo-SI and 4% Hetero-SI. The preparation concentrated in Hetero-SI is made up of 96% Hetero-SI and 4% Homo-SI. […] The inhibitory power on the toxicological target of each of the two isomers is therefore similar.
Background: Microsomes from liver hold many membrane-bound enzymes, among them those of drug oxidation.

Data set [4] in a line: Hepatic persistence in the rat after single tube-feeding of Homo-SI or Hetero-SI. Type of data set: in vivo, Sprague Dawley rats. As to the method:
Hepatic Persistence of the Homostereoisomer (Homo-SI) and the Heterostereoisomer (Hetero-SI) of Bromadiolone in the Rat
On D0 laboratory rats (Sprague Dawley rats, Charles River, Saint germain sur l'Arbresle, France) having a body weight of the order of 200 g are tube-fed with a solution of Homo-SI in a mixture of oil/DMSO or with a solution of Hetero-SI in an identical mixture of oil/DMSO in an amount of 3.0 mg of bromadiolone per kilogram of rat. The rats are kept alive by daily subcutaneous injection of a solution of vitamin K in an amount of 0.1 U per rat. On D+1, D+3, D+7, D+14 and D+21 4 rats are anaesthetised with isoflurane and then sacrificed, and the livers are removed and frozen until analysed. The course with respect to time of the mean hepatic contents of the configurational stereoisomers “Homo-SI” (▪) and “Hetero-SI” (◯) are analysed by HPLC, given in Table 2 below and shown in FIG. 4 (the symbol (▪) represents Homo-SI and the symbol (◯) represents Hetero-SI).

Where [5] appears, read: D + 1, 3.0 mg/kg tube-fed on D0, 3 mg/kg.
[6] abbreviates: D + 3, 3.0 mg/kg tube-fed on D0, 3 mg/kg.
Setting [7] is: D + 7, 3.0 mg/kg tube-fed on D0, 3 mg/kg.
Setting [8] is: D + 14, 3.0 mg/kg tube-fed on D0, 3 mg/kg.

Molecules are shown by their SMILES. Where two headings read alike, the source gives them in different places.

On to `O=c1oc2ccccc2c(O)c1C(CC(O)c1ccc(-c2ccc(Br)cc2)cc1)c1ccccc1` (stereo not shown) [Mixture 20/80, reference compound], for which, in data set [1] (D + 9), the “Hepatic content of total bromadiolone” value was found to be 7.18 µg/g. Besides, the concentration at 1 day in data set [1] (female, Sprague Dawley, rat, liver, oral, 3.8 mg/kg, D + 1, read-out: Hepatic content of total bromadiolone) is 32500 ng/g. In addition, in data set [1] (female, Sprague Dawley, rat, liver, oral, 3.8 mg/kg, D + 3, read-out: Hepatic content of total bromadiolone), the concentration at 3 day worked out at 24200 ng/g. In data set [1] (female, Sprague Dawley, rat, liver, oral, 3.8 mg/kg, D + 5, read-out: Hepatic content of total bromadiolone), the concentration at 5 day is 16400 ng/g.

`O=c1oc2ccccc2c(O)c1C(CC(O)c1ccc(-c2ccc(Br)cc2)cc1)c1ccccc1` (stereo not shown) [96/4]: the “effect of repeated ingestion (anticoagulant effect, haemorrhage, death)” value in the data set on Sprague Dawley rats is “sufficient to obtain an anticoagulant effect, a haemorrhage in the rat (male or female) and its death”.

For the compound `O=c1oc2ccccc2c(O)c1C(CC(O)c1ccc(-c2ccc(Br)cc2)cc1)c1ccccc1` (stereo not shown) [Mixture 4/96, reference compound], the “Hepatic content of total bromadiolone” value in data set [2] (3.8 mg/kg, D + 1, 3.8 mg/kg) was 14.96 ± 2.0 µg/g; in data set [2] (3.8 mg/kg, D + 1, listed as 4/96 mixture, 3.8 mg/kg), 14.96 µg/g; in data set [2] (3.8 mg/kg, D + 3, 3.8 mg/kg), 10.08 ± 3.3 µg/g; in data set [2] (3.8 mg/kg, D + 5, 3.8 mg/kg) it was 9.99 ± 1.0 µg/g. The concentration at 10 day in data set [2] (male, Sprague Dawley, rat, liver, oral, 3.8 mg/kg, D + 10, read-out: Hepatic content of total bromadiolone) was found to be 2390 ng/g.

Turning to `O=c1oc2ccccc2c(O)c1C(CC(O)c1ccc(-c2ccc(Br)cc2)cc1)c1ccccc1` (stereo not shown) [Mixture 80/20], the “Hepatic content of total bromadiolone” value in data set [2] (3.8 mg/kg, D + 1, 3.8 mg/kg) amounted to 7.85 ± 0.51 µg/g; in data set [2] (3.8 mg/kg, D + 3, 3.8 mg/kg) it was 3.49 ± 0.29 µg/g; in data set [2] (3.8 mg/kg, D + 5, 3.8 mg/kg) it was 2.15 ± 0.90 µg/g; in data set [2] (3.8 mg/kg, D + 10, 3.8 mg/kg), 1.33 ± 0.14 µg/g; in data set [1] (D + 1), 25.39 µg/g; in data set [1] (D + 3) it was 12.6 µg/g. In data set [1] (D + 9), the “Hepatic content of total bromadiolone” value turned out to be 2.47 µg/g. Also, in data set [2] (listed as 80/20 mixture), the “hepatic persistence (comparison with Hetero-SI or 4/96 mixture)” value is “less persistent”. The concentration at 1 day in data set [2] (male, Sprague Dawley, rat, liver, oral, 3.8 mg/kg, D + 1, read-out: Hepatic content of total bromadiolone) is 7850 ng/g.

The term Ki denotes the dissociation constant of the complex between target and ligand, obtained from inhibition or displacement. Turning to `O=c1oc2ccccc2c(O)c1C(CC(O)c1ccc(-c2ccc(Br)cc2)cc1)c1ccccc1` (stereo not shown) [Homo-SI, 3-[3-(4′-bromo-[1,1′-biphenyl]-4-yl)-3-hydroxy-1-phenylpropyl]-4-hydroxy-2H-1-benzopyran-2-one], in data set [3], the Ki is approximately 30 nM. The Hepatic content in data set [4] (setting [5]) was 8.27 ± 2.72 µg/g; in data set [4] (setting [6]) it was 2.34 ± 0.43 µg/g; in data set [4] (setting [7]) it was 1.57 ± 0.21 µg/g; in data set [4] (setting [8]), 0.99 ± 0.06 µg/g. In data set [4] (Sprague Dawley, rat, liver, oral, 3 mg/kg, D + 21, 3.0 mg/kg tube-fed on D0, read-out: Hepatic content), the concentration at 21 day was found to be 920 ± 80 ng/g. Besides, the “hepatic persistence compared with Hetero-SI” value is recorded as “significantly lower” in data set [4] (rat, equal initial dose) and “significantly lower” in data set [1]. The “hepatic persistence (comparison with Hetero-SI or 4/96 mixture)” value in data set [2] is “significantly lower”.

On to `O=c1oc2ccccc2c(O)c1C(CC(O)c1ccc(-c2ccc(Br)cc2)cc1)c1ccccc1` (stereo not shown) [Hetero-SI, reference compound], for which, in data set [3], the Ki is approximately 50 nM. The Hepatic content in data set [4] (setting [5]) stood at 18.62 ± 2.22 µg/g; in data set [4] (setting [6]), 14.70 ± 1.06 µg/g; in data set [4] (setting [7]) it was 5.20 ± 0.75 µg/g; in data set [4] (setting [8]) it was 2.67 ± 1.07 µg/g; in data set [4] (D + 21, 3.0 mg/kg tube-fed on D0, 3 mg/kg) it was 0.99 ± 0.07 µg/g.

The values are drawn from US9992997B2, “Composition comprising bromadiolone, rodenticide bait, and method for controlling target rodent pests” (priority 2014, dated 2018).
